Experimental data as given in patent US20250009745A1, “CDK INHIBITOR” (SHANGHAI QILU PHARMACEUTICAL RESEARCH AND DEVELOPMENT …, priority 2021, published 2025).

Assays:
[1] = target: T1, CDK2 (Homo sapiens, UniProt P24941); assay: CDK enzymology experiment in vitro, capillary mobility shift assay (MSA); format: biochemical; settings: read-out: CDK2 (nM) inhibitory IC50
T1 construct: purchased Carna Company
Experimental: (§1) CDK1/CDK2/CDK4/CDK6/CDK7/CDK9 were purchased from Carna Company; Carliper substrate CTD3/substrate 18/substrate 8 were purchased from Gil Biochemical Company; Dinaciclib/Palbociclib were purchased from Selleckchem Company; DMSO was purchased from Sigma Company; 384-well plates were purchased from Corning Company.
(§2) • (1) Preparation of 1×Kinase buffer. • (2) Preparation of compound concentration gradient: Test concentration of the test compound was started at 1 μM, 10 μM or 30 μM, 3-fold dilution, 10 concentrations, detected in duplicate. The test compound was diluted to a 100-fold final concentration with 100% DMSO solution in a 384 source plate. Liquid handler Echo 550 was used to transfer 250 nL of 100-fold final concentration of the compound to the target plate 384-well plate. […] The 384-well plate was centrifuged at 1000 rpm for 30 seconds, and shaken to mix uniformly. • (10) The conversion rate was read with Caliper EZ Reader.
(§3) Where, conversion %_sample is the readings of conversion rate of the sample; conversion %_min: the average value of negative control wells, representing the readings of conversion rate of wells without enzyme activity; conversion %_max: the average value of positive control wells, representing the readings of conversion rate of wells without compound inhibition.
(§4) Taking the log value of the concentration as the X-axis, and the percentage inhibition rate as the Y-axis, the dose-effect curve was fitted using the log(inhibitor) vs. response—Variable slope of the analysis software GraphPad Prism 5 so as to obtain the IC50 value of each compound on the enzyme activity.
(§5) Y=Bottom+(Top−Bottom)/(1+10^((Log IC50−X)*HillSlope)). Calculation formula: […]

[2] = target: T2, CDK4 (Homo sapiens, UniProt P11802); assay: as above; format: biochemical; settings: read-out: CDK4 (nM) inhibitory IC50
T2 construct: purchased Carna Company
T2 sequence (P11802 whole entry): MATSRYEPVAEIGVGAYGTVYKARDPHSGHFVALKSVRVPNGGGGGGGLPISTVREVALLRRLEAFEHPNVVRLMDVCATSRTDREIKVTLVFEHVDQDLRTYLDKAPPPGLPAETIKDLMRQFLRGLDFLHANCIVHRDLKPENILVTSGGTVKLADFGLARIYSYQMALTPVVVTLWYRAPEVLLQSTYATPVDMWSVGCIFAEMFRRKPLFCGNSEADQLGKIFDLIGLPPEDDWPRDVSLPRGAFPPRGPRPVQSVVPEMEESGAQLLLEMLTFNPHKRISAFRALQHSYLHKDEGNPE
T2 sequence (P30281 whole entry partner): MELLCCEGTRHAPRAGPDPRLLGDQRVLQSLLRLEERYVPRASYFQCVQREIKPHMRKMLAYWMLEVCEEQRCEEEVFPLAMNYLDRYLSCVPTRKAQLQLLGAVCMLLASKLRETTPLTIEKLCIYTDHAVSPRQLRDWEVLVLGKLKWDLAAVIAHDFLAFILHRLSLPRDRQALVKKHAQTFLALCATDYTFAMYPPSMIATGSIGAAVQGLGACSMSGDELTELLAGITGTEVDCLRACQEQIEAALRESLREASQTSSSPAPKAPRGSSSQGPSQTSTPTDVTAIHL
Experimental: as §1, §2, §3, §4, §5

Row | Compound | IC50 [1] [nM] | IC50 [2] [nM]
1 | Cn1cc(S(=O)(=O)N2CCC(Nc3ncc(C#N)c(N[C@H]4CCC[C@@H]4O)n3)CC2)cn1 [Compound 46] | 10 to 50 | 100 to 1000
2 | Cn1cc(S(=O)(=O)N2CCC(Nc3ncc(C#N)c(N[C@H]4CCC[C@H]4O)n3)CC2)cn1 [Compound 48] | 2.5 to 10 | 10 to 50
3 | O=S(=O)(c1ccc(C2=CCNCC2)cc1)N1CCC(Nc2ncc(C(F)(F)F)c(C=C3CCCC3)n2)CC1 [Compound 201] | 0.5 to 2.5 | 2.5 to 10
4 | N#Cc1cnc(NC2CCN(S(=O)(=O)c3ccc(C4=CCNCC4)cc3)CC2)nc1N[C@@H]1CCC[C@H]1O [Compound 91] | 0.5 to 2.5 | 2.5 to 10
5 | C[C@H]1COCCN1c1nc(NC2CCN(S(=O)(=O)c3cnn(C)c3)CC2)ncc1C#N [Compound 75] | 10 to 50 | 10 to 50
6 | Cn1cc(S(=O)(=O)N2CCC(Nc3ncc(C#N)c(N[C@@H]4CC[C@H](O)C4)n3)CC2)cn1 (single isomer, unassigned) [Example 13] | 2.5 to 10 | 10 to 50
7 | Cn1cc(S(=O)(=O)N2CCC(Nc3ncc(C#N)c(N[C@H]4CC[C@H](O)C4)n3)CC2)cn1 (single isomer, unassigned) [Compound 52] | 2.5 to 10 | 10 to 50
8 | Cn1cc(S(=O)(=O)N2CCC(Nc3ncc(C#N)c(NC4CCC4)n3)CC2)cn1 [Compound 76] | 2.5 to 10 | 10 to 50
9 | CN(c1nc(NC2CCN(S(=O)(=O)c3cnn(C)c3)CC2)ncc1C#N)C1CCCC1 [Compound 39] | 0.5 to 2.5 | 2.5 to 10
10 | Cn1cc(S(=O)(=O)N2CCC(Nc3ncc(C#N)c(N[C@@H]4CCC[C@@]4(C)O)n3)CC2)cn1 (single isomer, unassigned) [Example 20] | 10 to 50 | 100 to 1000
11 | Cn1cc(S(=O)(=O)N2CCC(Nc3ncc(C#N)c(O[C@@H]4CCC[C@H]4O)n3)CC2)cn1 (single isomer, unassigned) [Compound 67] | 2.5 to 10 | 10 to 50
12 | Cn1cc(-c2ccc(S(=O)(=O)N3CCC(Nc4ncc(C#N)c(N[C@H]5CCC[C@@H]5O)n4)CC3)cc2)cn1 [Compound 59] | 2.5 to 10 | 2.5 to 10
13 | Cn1cc(S(=O)(=O)N2CCC(Nc3ncc(C#N)c(O[C@@H]4CC[C@@H](O)C4)n3)CC2)cn1 (single isomer, unassigned) [Compound 57] | 2.5 to 10 | 10 to 50
14 | Cn1cc(S(=O)(=O)N2CCC(Nc3ncc(C#N)c(O[C@H]4CCC[C@@H]4O)n3)CC2)cn1 (single isomer, unassigned) [Compound 66] | 2.5 to 10 | 10 to 50
15 | Cn1cc(S(=O)(=O)N2CC[C@H](Nc3ncc(C(F)(F)F)c(O[C@H]4CCOC4)n3)[C@H](F)C2)cn1 [Compound 127] | < 0.5 | 10 to 50
16 | Cn1cc(S(=O)(=O)N2CCC(Nc3ncc(C(F)(F)F)c(O[C@H]4CCOC4)n3)C(F)(F)C2)cn1 (stereo partly shown) [Compound 129] | 2.5 to 10 | 10 to 50
17 | Cn1cc(S(=O)(=O)N2CCC(Nc3ncc(C(F)(F)F)c(OC4CCCC4)n3)CC2)cn1 [Compound 40] | 0.5 to 2.5 | 2.5 to 10
18 | Cn1cc(S(=O)(=O)N2CCC(Nc3cc(O[C@H]4CCOC4)c(C#N)cn3)CC2)cn1 [Compound 158] | 2.5 to 10 | 10 to 50
19 | Cn1cc(S(=O)(=O)N2CCC(Nc3ncc(C#N)c(NC4CC(F)(F)C4)n3)CC2)cn1 [Compound 78] | 2.5 to 10 | 10 to 50
20 | N#Cc1cnc(NC2CCN(S(=O)(=O)c3ccc(Br)cc3)CC2)nc1N[C@H]1CCOC1 [Compound 106] | 10 to 50 | 100 to 1000
21 | Cn1cc(-c2ccc(S(=O)(=O)N3CCC(Nc4ncc(C#N)c(N[C@@H]5CCC[C@H]5O)n4)CC3)cc2)cn1 [Compound 60] | 0.5 to 2.5 | –
22 | Cn1cc(S(=O)(=O)N2CCC(Nc3ncc(C(F)(F)F)c(O[C@@H]4COC[C@@H]4O)n3)CC2)cn1 (relative stereo) [Compound 111] | 2.5 to 10 | 50 to 100
23 | CN(C)[C@@H]1CCCC1Nc1nc(NC2CCN(S(=O)(=O)c3cnn(C)c3)CC2)ncc1C#N (stereo partly shown) [Example 23] | 2.5 to 10 | 50 to 100
24 | Cn1cc(S(=O)(=O)N2CCC(Nc3ncc(C#N)c(O[C@H]4CC[C@H](O)C4)n3)CC2)cn1 (single isomer, unassigned) [Compound 56] | 2.5 to 10 | 50 to 100
25 | Cn1cc(S(=O)(=O)N2CC[C@@H](Nc3ncc(C(F)(F)F)c(O[C@H]4CCOC4)n3)[C@H](F)C2)cn1 [Compound 125] | 0.5 to 2.5 | 10 to 50
